Measured values from article PMC7961380, “A Systematic Study of the In Vitro Pharmacokinetics and Estimated Human In Vivo Clearance of Indole and Indazole-3-Carboxamide Synthetic Cannabinoid Receptor Agonists Detected on the Illicit Drug Market” (Molecules, 2021).
Where two headings read alike, the source gives them in different places.

Tests used:
[1] = Short-term plasma stability with and without esterase inhibitors; conditions: 37 °C; for remaining at 3 h, 5 µM / remaining at 5 h: human, pH 7.4, Parent Compound Remaining (%)
[2] = test system: pooled human cryopreserved hepatocytes (pHHeps); assay: Metabolic stability, pooled human cryopreserved hepatocyte incubations; conditions: for Predicted In Vivo Hepatic Clearance, CLH: from pHHeps CLint, well-stirred model with plasma fu, Q 21 mL min^−1 kg^−1
[3] = as above; conditions: human, hepatocytes; for CLint scaled at 0.5 µM: Intrinsic clearance, pHHeps, alternative hepatocyte cell density 99x10^6 hepatocytes per gram liver; for half-life at 0.5 µM: T1/2 (min), pHHeps 0.25 million cells mL^−1, 0.5 µM, 37 °C, n ≥ 3 ± SD
[4] = Plasma protein binding by equilibrium dialysis; assay type: in vitro ADME, human; conditions: for fraction unbound at 5 h, 10 µg mL^−1: human, pooled human plasma, pH 7.4, equilibrium dialysis 5 h, 37 °C
[5] = Metabolic stability, pooled human liver microsome incubations; conditions: for Predicted In Vivo Hepatic Clearance, CLH: from pHLM CLint, well-stirred model with plasma fu, Q 21 mL min^−1 kg^−1; for CLint scaled at 0.5 µM / half-life at 0.5 µM: human, microsomes; for CLint scaled at 0.5 µM: pH 7.4, Intrinsic clearance; for half-life at 0.5 µM: pH 7.4, T1/2 (min), pHLM 0.5 mg mL^−1, 0.5 µM, NADPH, 37 °C; for half-life at 0.5 µM / Microsomal Intrinsic Clearance, CLint micr: n ≥ 3 ± SD
[6] = Esterase Inhibitors, pH 7.4, BNPP and PMSF 500 µM each
[7] = plasma, No Esterase Inhibitors, pH 7.4, pooled human plasma
[8] = pHHeps, 99x10^6 hepatocytes per gram liver
[9] = 10 µg mL^−1, read-out: PPB (%) (converted)
[10] = plasma, read-out: Fraction Unbound (fu)
[11] = pHLM, alternative microsomal scaling factor 32 mg microsomal protein per gram liver
[12] = pHLM, alternative microsomal scaling factor 45 mg microsomal protein per gram liver
[13] = pHLM, scaling factor 32 mg microsomal protein per gram liver
[14] = pHLM, scaling factor 45 mg microsomal protein per gram liver

Structure (SMILES) | remaining at 3 h, 5 µM [1, 6] | remaining at 3 h, 5 µM [1, 7] | Predicted In Vivo Hepatic Clearance, CLH [2] | Hepatic extraction ratio, EH ([2]; from pHHeps incubations) | Hepatic extraction ratio, EH [2, 8] | Predicted in vivo hepatic clearance, CLH [2, 8] | % parent compound remaining, Average ([2]; pHHeps, 3 min) | % parent compound remaining, Average ([2]; pHHeps, 6 min) | % parent compound remaining, Average ([2]; pHHeps, 9 min) | % parent compound remaining, Average ([2]; pHHeps, 15 min) | % parent compound remaining, Average ([2]; pHHeps, 30 min) | % parent compound remaining, Average ([2]; pHHeps, 45 min) | % parent compound remaining, Average ([2]; pHHeps, 60 min) | CLint scaled at 0.5 µM [3] | half-life at 0.5 µM [3] | fraction unbound at 5 h, 10 µg mL^−1 [4, 9] | fraction unbound at 5 h, 10 µg mL^−1 [4, 10] | Predicted In Vivo Hepatic Clearance, CLH [5] | Hepatic extraction ratio, EH ([5]; from pHLM incubations) | CLint scaled at 0.5 µM [5, 11] | other results
COC(=O)[C@@H](NC(=O)c1cn(CC2CCCCC2)c2ccccc12)C(C)C [(S)-AMB-CHMICA (9), methyl [1-(cyclohexylmethyl)-1H-indole-3-carbonyl]valinate] | 90.5 ± 3.4% | 93.9 ± 9.3% | 7.68 ± 0.22 mL/min/kg | 0.37 ± 0.011 | 0.35 ± 0.011 | 7.31 ± 0.23 mL/min/kg | 65.0% | 58.4% | 43.3% | 23.8% | 8.7% | 3.5% | 1.5% | 935 ± 44.8 mL/min/kg | 7.6 ± 0.35 min | 0.012 | 0.012 ± 0.0006 | 4.37 ± 0.68 mL/min/kg | 0.21 ± 0.032 | 282 mL/min/kg | CLint scaled at 0.5 µM [5, 12]: 397 mL/min/kg; half-life at 0.5 µM [5]: 4.1 ± 0.75 min; % parent compound remaining, Average ([5]; pHLM, 3 min): 52.7%; % parent compound remaining, Average ([5]; pHLM, 6 min): 35.1%; % parent compound remaining, Average ([5]; pHLM, 9 min): 25.3%; % parent compound remaining, Average ([5]; pHLM, 15 min): 9.9%; % parent compound remaining, Average ([5]; pHLM, 30 min): 2.5%; Microsomal Intrinsic Clearance, CLint micr ([5]; pHLM): 0.343 ± 0.069 mL min^−1 mg Microsomal Protein^−1; Hepatic extraction ratio, EH [5, 13]: 0.14 ± 0.024; Predicted in vivo hepatic clearance, CLH [5, 13]: 2.91 ± 0.50 mL/min/kg; Hepatic extraction ratio, EH [5, 14]: 0.18 ± 0.030; Predicted in vivo hepatic clearance, CLH [5, 14]: 3.87 ± 0.62 mL/min/kg
COC(=O)[C@@H](NC(=O)c1nn(Cc2ccc(F)cc2)c2ccccc12)C(C)C [(S)-AMB-FUBINACA (1), methyl [1-(4-fluorobenzyl)-1H-indazole-3-carbonyl]valinate] | 96.1 ± 1.6% | 96.6 ± 3.8% | 15.52 ± 0.85 mL/min/kg | 0.74 ± 0.041 | 0.72 ± 0.042 | 15.21 ± 0.88 mL/min/kg | 37.0% | 18.7% | 14.7% | 6.2% | 1.4% | 1.1% | 0.8% | 2980 mL/min/kg | 2.5 ± 0.55 min | 0.019 | 0.019 ± 0.0008 | 15.27 ± 0.14 mL/min/kg | 0.73 ± 0.006 | 1790 mL/min/kg | Parent Compound Remaining (%), Esterase Inhibitors ([1]; 5 h, pH 7.4, BNPP and PMSF 500 µM each): 93.5 ± 0.1%; Parent Compound Remaining (%), No Esterase Inhibitors ([1]; 5 h, pH 7.4, pooled human plasma): 85.9 ± 4.0%; remaining at 5 h ([1]; Esterase Inhibitors, 5 h, pH 7.4, BNPP and PMSF 500 µM each): 94 ± 0.1%; remaining at 5 h ([1]; plasma, No Esterase Inhibitors, 5 h, pH 7.4, pooled human plasma): 86 ± 4%; recovery (total peak area in dialysed samples vs 4 °C samples) ([4]; PPB thermal stability control, 5 h): 77 ± 4.4%; CLint scaled at 0.5 µM [5, 12]: 2520 mL/min/kg; half-life at 0.5 µM [5]: 0.6 ± 0.02 min; % parent compound remaining, Average ([5]; pHLM, 3 min): 3.8%; % parent compound remaining, Average ([5]; pHLM, 6 min): 0.7%; % parent compound remaining, Average ([5]; pHLM, 9 min): 0.2%; % parent compound remaining, Average ([5]; pHLM, 15 min): 0.1%; % parent compound remaining, Average ([5]; pHLM, 30 min): 0.3%; Microsomal Intrinsic Clearance, CLint micr ([5]; pHLM): 2.182 ± 0.071 mL min^−1 mg Microsomal Protein^−1; Hepatic extraction ratio, EH [5, 13]: 0.62 ± 0.008; Predicted in vivo hepatic clearance, CLH [5, 13]: 12.99 mL/min/kg; Predicted in vivo hepatic clearance, CLH [5, 14]: 14.60 mL/min/kg
